Columns and labels:
[1] = target: T1, aldosterone receptors (Homo sapiens, UniProt P08235); assay: Single dose study: antialdosterone activity, urinary sodium and potassium after fludrocortisone; assay type: in vivo, humans; conditions: 50 mg dose
T1 construct: endogenous in cells; host or cells: healthy male human subjects (in vivo)
T1 sequence (P08235 1-984): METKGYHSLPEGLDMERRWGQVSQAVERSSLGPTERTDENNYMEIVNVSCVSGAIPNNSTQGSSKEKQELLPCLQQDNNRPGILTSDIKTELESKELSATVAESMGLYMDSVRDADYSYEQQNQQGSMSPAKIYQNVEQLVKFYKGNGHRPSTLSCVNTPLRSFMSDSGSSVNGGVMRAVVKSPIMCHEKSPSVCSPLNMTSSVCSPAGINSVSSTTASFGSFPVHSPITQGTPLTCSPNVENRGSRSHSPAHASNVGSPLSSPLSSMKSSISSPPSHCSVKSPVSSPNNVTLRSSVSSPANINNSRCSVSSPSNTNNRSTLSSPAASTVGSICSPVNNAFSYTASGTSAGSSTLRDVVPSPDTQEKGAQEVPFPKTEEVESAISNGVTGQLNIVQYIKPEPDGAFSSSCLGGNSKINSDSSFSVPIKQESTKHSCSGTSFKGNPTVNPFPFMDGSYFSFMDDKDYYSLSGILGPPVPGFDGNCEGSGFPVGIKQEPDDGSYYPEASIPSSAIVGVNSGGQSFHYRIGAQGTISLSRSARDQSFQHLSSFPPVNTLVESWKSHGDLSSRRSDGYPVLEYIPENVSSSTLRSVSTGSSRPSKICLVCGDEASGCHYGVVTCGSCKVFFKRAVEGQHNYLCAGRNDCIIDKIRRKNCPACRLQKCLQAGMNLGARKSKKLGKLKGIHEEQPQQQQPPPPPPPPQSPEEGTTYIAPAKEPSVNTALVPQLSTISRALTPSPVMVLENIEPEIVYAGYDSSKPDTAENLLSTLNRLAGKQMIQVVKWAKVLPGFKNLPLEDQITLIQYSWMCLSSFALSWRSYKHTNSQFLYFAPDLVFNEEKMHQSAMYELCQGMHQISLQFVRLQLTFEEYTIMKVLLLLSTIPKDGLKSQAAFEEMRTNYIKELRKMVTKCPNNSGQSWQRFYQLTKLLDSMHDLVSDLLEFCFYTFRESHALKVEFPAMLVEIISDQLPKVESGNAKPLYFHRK
Experimental: Antialdosterone activity was determined based on urine levels of sodium and potassium following repeated administration of fludrocortisone. Safety was determined on the basis of laboratory tests, vital signs, and the occurrence and types of adverse events.
(§1) The subjects, who underwent a ten hour food fast prior to administration of the dose, received a single oral dose of one of the study medications together with about 180 mL of water at 0800 hours. […] Each dose of fludrocortisone was administered with 150 mL of water except for the 1.0 mg dose which was administered with 200 mL of water.
(§2) The plasma samples collected from subjects dosed with eplerenone were assayed for concentrations of eplerenone and the open lactone ring form of eplerenone. […] A subset of plasma samples was also assayed for testosterone levels. The urine collected was analyzed to determine concentrations and amounts of eplerenone and the open lactone ring form of eplerenone, the amount of sodium and potassium excreted, and the urinary log10 (sodium/potassium) ratio.

[2] = target: T1, aldosterone receptors; assay: Multiple dose study: antialdosterone activity, urinary log10 (sodium/potassium); assay type: in vivo, humans; conditions: multiple dose administration
Experimental: Multiple oral dose tolerability and the pharmacokinetics of several dosages of eplerenone were evaluated in a double-blind, randomized, placebo-controlled, rising oral dose, sequential panel study of 40 healthy male subjects (five groups of eight subjects). The study medication was administered in three sequential dose panels, with each panel including eplerenone, spironolactone and placebo. […] The 100 mg and 200 mg dose capsules corresponded to those described in Examples 7 and 8, respectively. […] Antialdosterone activity was determined following a fludrocortisone challenge on Days 12-13.

[3] = tested on: renin and aldosterone; assay: Treatment of hypertension study: plasma renin and serum aldosterone; assay type: in vivo, humans
Experimental: The safety and efficacy of a range of doses of eplerenone in the treatment of hypertension relative to placebo were evaluated in a multi-center, randomized, double-blind, placebo-lead-in, parallel group study. […] Four hundred and seventeen patients were randomized to one of eight treatments: (i) placebo BID; […] (iv) eplerenone 400 mg QD; (v) eplerenone 25 mg BID; […] The primary efficacy variable was the change in cuff diastolic blood pressure (ADBP; sitting) measured at trough plasma levels after eight weeks of double blind treatment. The secondary variables measured were the change in trough cuff systolic blood pressure (ΔSBP; sitting), change in 24 hour mean diastolic blood pressure (ΔDBP), and change in 24 hour mean systolic blood pressure (ΔSBP). […] Changes in plasma renin and serum aldosterone after eight weeks of dosing were also analyzed as secondary measures of efficacy.

[4] = Single dose study: plasma pharmacokinetics of eplerenone, open lactone ring form, spironolactone
Experimental: The pharmacokinetics, safety and antialdosterone activity of single 10, 50, 100, 300 and 1000 mg oral doses of eplerenone were evaluated in a single-center, randomized, double-blind, placebo-controlled study.
The study employed seven parallel dose groups of eight healthy male humans.
The eplerenone capsules administered corresponded to the capsules (or combinations of the capsules) disclosed in Examples 4, 5, 7 and 8 above. The placebo was a conventional capsule containing lactose. […] The fludrocortisone used in the study consisted of commercially available fludrocortisone tablets (Florinef®, Squibb BV).
as §1, §2

[5] = tested on: blood pressure; assay: Treatment of hypertension study: blood pressure; assay type: in vivo, humans; conditions: 50 mg BID; eight weeks
Experimental: The safety and efficacy of a range of doses of eplerenone in the treatment of hypertension relative to placebo were evaluated in a multi-center, randomized, double-blind, placebo-lead-in, parallel group study. […] The primary efficacy variable was the change in cuff diastolic blood pressure (ADBP; sitting) measured at trough plasma levels after eight weeks of double blind treatment. The secondary variables measured were the change in trough cuff systolic blood pressure (ΔSBP; sitting), change in 24 hour mean diastolic blood pressure (ΔDBP), and change in 24 hour mean systolic blood pressure (ΔSBP). The primary and secondary efficacy variables were analyzed to compare BID versus QD dosing regimens for each eplerenone dose group, and both eplerenone and spironolactone versus placebo. Changes in plasma renin and serum aldosterone after eight weeks of dosing were also analyzed as secondary measures of efficacy.
The specific pharmaceutical compositions of each eplerenone capsule are reported in Examples 5, 6, 7 and 8. The placebo was a conventional capsule containing lactose.

CC(=O)S[C@@H]1CC2=CC(=O)CC[C@]2(C)[C@H]2CC[C@@]3(C)[C@@H](CC[C@@]34CCC(=O)O4)[C@H]12 [spironolactone, Spironolactone, reference compound]
Urinary Potassium Excretion ([1]; 0 to 2 hours): 7.5 mmol
Urinary Sodium Excretion ([1]; 0 to 2 hours): 4.1 mmol
Urinary Potassium Excretion ([1]; 2 to 4 hours): 11.8 mmol
Urinary Sodium Excretion ([1]; 2 to 4 hours): 8.5 mmol
Urinary Potassium Excretion ([1]; 4 to 6 hours): 10.2 mmol
Urinary Sodium Excretion ([1]; 4 to 6 hours): 9.4 mmol
Urinary Potassium Excretion ([1]; 6 to 8 hours): 13.3 mmol
Urinary Sodium Excretion ([1]; 6 to 8 hours): 14.8 mmol
Urinary Potassium Excretion ([1]; 8 to 10 hours): 17.9 mmol
Urinary Sodium Excretion ([1]; 8 to 10 hours): 13.4 mmol
Urinary Potassium Excretion ([1]; 10 to 12 hours): 12.5 mmol
Urinary Sodium Excretion ([1]; 10 to 12 hours): 8.4 mmol
Urinary Potassium Excretion ([1]; 12 to 14 hours): 20.6 mmol
Urinary Sodium Excretion ([1]; 12 to 14 hours): 11.5 mmol
Urinary Potassium Excretion ([1]; 14 to 16 hours): 11.4 mmol
Urinary Sodium Excretion ([1]; 14 to 16 hours): 5.9 mmol
Urinary Potassium Excretion ([1]; 16 to 24 hours): 27.9 mmol
Urinary Sodium Excretion ([1]; 16 to 24 hours): 11.8 mmol
Urinary Potassium Excretion ([1]; −9 to 0 hours): 26.9 mmol
Urinary Sodium Excretion ([1]; −9 to 0 hours): 29.1 mmol
urinary log10 (sodium/potassium) values [2]: no sustained increase
Plasma Renin Active Mean Change From Baseline ([3]; 50 mg BID): 13.3 mU/L
Serum Aldosterone Mean Change From Baseline ([3]; 50 mg BID): 19.2 ng/dL
aldosterone compared to placebo ([3]; eight weeks of dosing): increases
total and active renin levels ([3]; eight weeks of dosing): increases
Plasma Concentration Of Spironolactone ([4]; 50 mg single oral dose, -0.25 h (predose)): 0 ng/mL
concentration at 0.5 h ([4]; male, human, plasma, po, 50 mg): 10.5 ng/mL
concentration at 1 h ([4]; male, human, plasma, po, 50 mg): 23.6 ng/mL
concentration at 2 h ([4]; male, human, plasma, po, 50 mg): 14.4 ng/mL
concentration at 3 h ([4]; male, human, plasma, po, 50 mg): 14.3 ng/mL
concentration at 4 h ([4]; male, human, plasma, po, 50 mg): 4.8 ng/mL
concentration at 6 h ([4]; male, human, plasma, po, 50 mg): 0 ng/mL
concentration at 8 h ([4]; male, human, plasma, po, 50 mg): 0 ng/mL
concentration at 12 h ([4]; male, human, plasma, po, 50 mg): 0 ng/mL
concentration at 16 h ([4]; male, human, plasma, po, 50 mg): 0 ng/mL
concentration at 24 h ([4]; male, human, plasma, po, 50 mg): 0 ng/mL
concentration at 28 h ([4]; male, human, plasma, po, 50 mg): 0 ng/mL
concentration at 32 h ([4]; male, human, plasma, po, 50 mg): 0 ng/mL
concentration at 48 h ([4]; male, human, plasma, po, 50 mg): 0 ng/mL
concentration at 72 h ([4]; male, human, plasma, po, 50 mg): 0 ng/mL
concentration at 96 h ([4]; male, human, plasma, po, 50 mg): 0 ng/mL
24 hour mean ΔDBP [5]: −8.9 mmHg
24 hour mean ΔSBP [5]: −15.7 mmHg
Primary Efficacy Variable: ΔDBP at trough (sitting) [5]: −9.5 mmHg
ΔSBP at trough (sitting) [5]: −17.6 mmHg

From patent publication US6410054B1, “Immediate release eplerenone compositions” (G. D. Searle & Co., priority 1998, dated 2002)
